Assay results taken from patent US20260159810A1, “MEDIUM COMPOSITION FOR INDUCING DIFFERENTIATION FROM STEM CELLS TO MACROPHAGES AND DIFFERENTIATION METHOD USING SAME” (SUNGKWANG MEDICAL FOUNDATION, priority 2022, published 2026).

Key:
[1] = system: macrophage-specific markers (MHC 1, MHC 2, CD11b, CD86, CX3CR1, CD16) in hPSC-derived floating cells; experiment: Identification of macrophage-specific markers by FACS; format: cell-based, human; details: medium supplemented with fasudil during differentiation to macrophages
Method: The expression pattern of markers specific to macrophages in the cells obtained in Example 1, Comparative Example 1, and Comparative Example 2 was investigated. Specifically, confirmation was performed using fluorescence-activated cell sorting (FACS, BD FACSCalibur™). Results of cells expressing CD11b, a surface marker of macrophages, and CD86, which is expressed in antigen presenting cells, confirmed through FACS are shown in FIG. 5. Results of cells expressing CX3CR1, which regulates macrophage function in inflammatory sites, and CD16, which is associated with antibody-dependent cell-mediated cytotoxicity (ADCC), confirmed through FACS are shown in FIG. 6.

mouse thymus cells = experiment: Measurement of phagocytosis: differentiated macrophages co-cultured with fluorescently stained target cells; format: cell-based; details: various E:T ratios; cells positive for both CD11b and target-cell fluorescence; FIG. 7
Method: Phagocytosis of macrophages obtained from Example 1 and Comparative Example 1 was confirmed. Specifically, macrophages (effectors) obtained from Example 1 and Comparative Example 1 were co-cultured with mouse thymus cells (targets, fluorescently stained) at various E:T (effector:target) ratios. After co-culture, cells were collected and phagocytosis of macrophages was measured by measuring cells that simultaneously expressed macrophage-specific markers (CD11b) and fluorescence that had been stained on target cells.

For `O=S(=O)(c1cccc2cnccc12)N1CCCNCC1` [fasudil], the “expression of macrophage-specific markers” value [1] was “increased” and the phagocytosis of macrophages (mouse thymus cells) was “increased”.
